Assay: in vitro
Conditions: human, hela cells, % viability

| Structure (SMILES) | viability at 28.5 h, 10 µM |
| --- | --- |
| COc1ccc(C(=O)NCC2(c3ccc(OC)c(OC)c3)CCCCC2)c(OC)c1 [CBK067049] | 82.8% |
| COc1ccc(C2(CNC(=O)c3ccc(C)cc3)CCOCC2)cc1 [CBK067060] | 108% |
| CN(c1ccc(C(O)(C(F)(F)F)C(F)(F)F)cc1)S(=O)(=O)c1cccs1 [CBK067061] | 107% |
| COc1ccc(C2N3CCCN2CC3)cc1 (stereo not drawn) [CBK067068] | 92.3% |
| Cc1nn(C)c(Cl)c1S(=O)(=O)Nc1cccc(-c2cnco2)c1 [CBK067107] | 78.8% |
| Cc1noc(C)c1S(=O)(=O)Nc1cccc(-c2cnco2)c1 [CBK067108] | 97.1% |
| O=S(=O)(Nc1cccc(-c2cnco2)c1)c1ccc(Br)cc1C(F)(F)F [CBK067118] | 93.4% |
| O=S(=O)(Nc1cccc(-c2cnco2)c1)c1ccc(-c2cc(C(F)(F)F)on2)s1 [CBK067124] | 100% |
| O=[N+]([O-])c1cc(S(=O)(=O)Nc2cccc(-c3cnco3)c2)ccc1Cl [CBK067125] | 95.7% |
| O=S(=O)(Nc1cccc(-c2cnco2)c1)c1cc(C(F)(F)F)cc(C(F)(F)F)c1 [CBK067127] | 109% |
| Cc1nn(C)c(Cl)c1S(=O)(=O)Nc1ccc2cn[nH]c2c1 [CBK067141] | 90.2% |
| Cn1nc(-c2ccc(S(=O)(=O)Nc3ccc4cn[nH]c4c3)s2)cc1C(F)(F)F [CBK067156] | 92.8% |
| N#Cc1cn(S(=O)(=O)c2cccc(C(F)(F)F)c2)nc1N [CBK067225] | 92.6% |
| Cc1cc(NS(=O)(=O)c2cccc3cccnc23)n(C)n1 [CBK067242] | 89.1% |
| Cc1cc(NS(=O)(=O)c2cccc([N+](=O)[O-])c2)n(C)n1 [CBK067243] | 99.2% |
| Cc1cc(NS(=O)(=O)c2cccc3nsnc23)n(C)n1 [CBK067246] | 95.4% |
| Cc1cc(NS(=O)(=O)c2cccc3nonc23)n(C)n1 [CBK067247] | 93.7% |
| Cc1cc(NS(=O)(=O)c2ccc(Oc3ccccc3)cc2)n(C)n1 [CBK067249] | 96.2% |
| Cc1cc(NS(=O)(=O)c2ccc3oc(=O)ccc3c2)n(C)n1 [CBK067250] | 99.6% |
| Cc1cc(NS(=O)(=O)c2csc3ccccc23)n(C)n1 [CBK067251] | 89.5% |
| Cc1cc(NS(=O)(=O)c2ccc(N3CCOCC3)nc2)n(C)n1 [CBK067253] | 117% |
| Cc1cc(NS(=O)(=O)c2ccc(Cl)c(Cl)c2)n(C)n1 [CBK067254] | 109% |
| Cc1cc(NS(=O)(=O)c2ccc(Br)cc2C(F)(F)F)n(C)n1 [CBK067255] | 107% |

| Structure (SMILES) | viability at 28.5 h, 10 µM |
| --- | --- |
| Cc1cc(NS(=O)(=O)c2ccc(-c3ccon3)s2)n(C)n1 [CBK067257] | 85.4% |
| Cc1cc(NS(=O)(=O)c2ccc(Cl)c([N+](=O)[O-])c2)n(C)n1 [CBK067259] | 96.8% |
| Cc1cc(NS(=O)(=O)c2cc(C(=O)O)c(Cl)cc2F)n(C)n1 [CBK067260] | 102% |
| Cc1cc(NS(=O)(=O)c2cc(C(F)(F)F)cc(C(F)(F)F)c2)n(C)n1 [CBK067261] | 105% |
| Cc1noc(C)c1S(=O)(=O)Nc1nc(-c2cccnc2)cs1 [CBK067266] | 91.5% |
| Cn1nc(-c2ccc(S(=O)(=O)Nc3nc(-c4cccnc4)cs3)s2)cc1C(F)(F)F [CBK067270] | 88.4% |
| O=S(=O)(Nc1cc(-c2ccco2)n[nH]1)c1ccc(Br)cc1C(F)(F)F [CBK067286] | 96.2% |
| O=C(O)c1cc(S(=O)(=O)Nc2cc(-c3ccco3)n[nH]2)c(F)cc1Cl [CBK067292] | 92.6% |
| CCN(C(=O)CC1SC(NCC2CCCCC2)=NC1=O)c1ccccc1 (stereo not drawn) [CBK067373] | 89.3% |
| CC(C)(C)OC(=O)N1CCC(Oc2nccnc2Cl)CC1 [CBK067386] | 89.8% |
| O=C1C2N=NN(Cc3ccccc3)C2C(=O)N1C1CCCCC1 (stereo not drawn) [CBK067389] | 115% |
| CC(C)CC(CC(C)C)OCC(=O)NCC1(c2ccc3ccccc3c2)CCC1 [CBK067404] | 109% |
| CN1CC[C@]2(c3ccc4c(c3)nnn4C)CC[C@@H](NC(=O)Nc3cccc(C(F)(F)F)c3F)C[C@H]12 [CBK067410] | 99.9% |
| COc1ccc([C@@]23CCC(N)C[C@@H]2N(C)CC3)c(F)c1OC (stereo partly drawn) [CBK067416] | 78.3% |
| Cc1cccc(S(=O)(=O)Nc2cc(OCCN3CCOCC3)c3occc3c2)c1 [CBK067420C] | 90.4% |
| Cc1ccc(S(=O)(=O)NCC(=O)Nc2ccc3cc(Br)cnc3n2)cc1 [CBK067429] | 95.6% |
| COc1ccccc1NC(=O)NCCC1SC(NC2CCCCCC2)=NC1=O (stereo not drawn) [CBK067473] | 91.8% |
| O=[N+]([O-])c1cnc(NS(=O)(=O)c2cccc(C(F)(F)F)c2)s1 [CBK067533] | 104% |
| O=[N+]([O-])c1cnc(NS(=O)(=O)c2ccccc2Br)s1 [CBK067539] | 96.2% |
| O=[N+]([O-])c1cnc(NS(=O)(=O)c2ccc(Br)cc2C(F)(F)F)s1 [CBK067541] | 99.6% |
| Cn1nc(-c2ccc(S(=O)(=O)Nc3ncc([N+](=O)[O-])s3)s2)cc1C(F)(F)F [CBK067542] | 109% |
| O=[N+]([O-])c1cnc(NS(=O)(=O)c2ccc(-c3ccon3)s2)s1 [CBK067543] | 95.2% |
| Cn1nc(-c2ccc(S(=O)(=O)Nc3cccc(Cl)c3Cl)s2)cc1C(F)(F)F [CBK067548] | 92.2% |

| Structure (SMILES) | viability at 28.5 h, 10 µM |
| --- | --- |
| CCCCc1ccc(-c2cnc(N)c3ncccc23)cc1 [CBK067588] | 75.7% |
| CS(=O)(=O)c1ccc(-c2cnc(N)c3ncccc23)cc1 [CBK067593] | 90.5% |
| Nc1ncc(-c2ccc(OC(F)(F)F)cc2)c2cccnc12 [CBK067594] | 98.7% |
| Nc1cc2cccnc2nc1-c1cccnc1 [CBK067602] | 84.8% |
| Nc1cc2cccnc2nc1-c1cc(F)cc(F)c1 [CBK067604] | 88.3% |
| Nc1cc2cccnc2nc1-c1cccc2cccnc12 [CBK067609] | 99.9% |
| COc1ccc(C(C)C)cc1-c1nc2ncccc2cc1N [CBK067614] | 95.8% |
| Nc1ccc2ccc(-c3ccsc3)nc2n1 [CBK067624] | 89.4% |
| Nc1ccc2ccc(-c3ccc4c(c3)CCO4)nc2n1 [CBK067625] | 90% |
| CN(C)c1ccc(-c2ccnc3nc(N)ccc23)cc1 [CBK067640] | 85.8% |
| CS(=O)(=O)c1ccc(-c2ccnc3nc(N)ccc23)cc1 [CBK067648] | 117% |
| Nc1ccc2c(-c3ccc(OC(F)(F)F)cc3)ccnc2n1 [CBK067649] | 89.1% |
| Cc1ccc(S(=O)(=O)Nc2ccnc(Cl)n2)cc1 [CBK067661] | 90.7% |
| COc1ccc([C@@]23CC[C@@H](N)C[C@@H]2N(C(C)(C)C)CC3)cc1OC [CBK067673] | 114% |
| O=C(NCCC1SC(NC2CCCCCC2)=NC1=O)Nc1ccc(C(F)(F)F)cc1Cl (stereo not drawn) [CBK067682] | 89.9% |
| O=C1N=C(NC2CCCCCC2)SC1CCNC(=O)N1CCOCC1 (stereo not drawn) [CBK067687] | 110% |
| CSc1nnc(-c2sccc2OCc2ccc(Cl)cc2Cl)n1C [CBK067693] | 111% |
| O=C(NCc1n[nH]c(=S)n1-c1cccc(C(F)(F)F)c1)c1cccs1 [CBK067697] | 91.2% |
| Cn1c(SCC(=O)c2ccc(Cl)cc2)nnc1-c1cnccc1C(F)(F)F [CBK067698] | 110% |
| CSc1nnc(-c2cccs2)n1C [CBK067702] | 87.9% |
| O=c1c(-c2nnc(SCc3cccc(C(F)(F)F)c3)o2)cccn1Cc1ccccc1 [CBK067712] | 108% |
| Cc1nc(-c2nnc(SCc3ccc(C(F)(F)F)cc3)o2)cs1 [CBK067715] | 95.1% |
| Cc1cc(-c2nnc(SCc3ccc(Cl)cc3)n2C)no1 [CBK067720] | 112% |

| Structure (SMILES) | viability at 28.5 h, 10 µM |
| --- | --- |
| Cc1sc(-c2c(F)cccc2F)nc1O [CBK067729] | 102% |
| Cc1sc(-c2ccc(Cl)nc2)nc1OC(=O)c1cccs1 [CBK067733] | 94.5% |
| CC(C)(C)c1ccc(-c2nc(O)c(CC(=O)O)s2)cc1 [CBK067734] | 99.6% |
| CC(=O)Nc1onc(C)c1-c1nc(-c2ccc(Cl)cc2Cl)cs1 [CBK067735] | 101% |
| Cc1sc(-c2cnccn2)nc1O [CBK067738] | 97.3% |
| COc1ccc(/C=C2\SC(Nc3ccc(Cl)c(C(=O)O)c3)=NC2=O)cc1C [CBK067743] | 99.1% |
| Cc1sc(-c2cccs2)nc1OC(=O)c1cccc(C(F)(F)F)c1 [CBK067748] | 96.1% |
| O=C1N/C(=N/c2ccccc2Cl)S/C1=C/c1ccc(-c2ccccc2Cl)o1 [CBK067752] | 89.3% |
| Cc1nn(-c2ccccc2)c(O)c1Cc1c(Cl)cccc1Cl [CBK067760] | 98.1% |
| CC1=NN(c2ccc(Cl)c(Cl)c2)C(=O)C1 [CBK067761] | 100% |
| O=C1CC(c2cccnc2)=NN1c1ccc(Cl)cc1Cl [CBK067764] | 97.7% |
| COc1cccc(CCN2N=C(C)CC2=O)c1OC [CBK067766] | 100% |
| Cc1cc(SCC2=NNC(=O)C2)c(Cl)cc1Cl [CBK067769] | 92.8% |
| CC1=NN(c2ccccc2)C(=O)C1C(=O)c1ccc(Br)cc1 (stereo not drawn) [CBK067771] | 98.1% |
| CN1N=C(c2ccccc2)CC1=O [CBK067774] | 96.4% |
| Cc1nn(C)c(Cl)c1S(=O)(=O)Nc1cc(NC2CCNC2)c2occc2c1 (stereo not drawn) [CBK067807C] | 99.3% |
| CCN(CC)C(=O)c1sc2ccccc2c1Cl [CBK067853] | 103% |
| O=C1N=C(NC2CCCCCC2)SC1Cc1ccc(O)cc1 (stereo not drawn) [CBK067868] | 109% |
| CCN1CCC[C@@H]1CNc1cc(NS(=O)(=O)c2cccs2)cc2ccoc12 [CBK067904C] | 83.3% |
| O=C1N=C(NCC2CCCCC2)SC1CC(=O)N1CCCC(O)C1 (stereo not drawn) [CBK067919] | 109% |
| CCN(CC)C(=O)CC1SC(NCC2CCCCC2)=NC1=O (stereo not drawn) [CBK067923] | 92.9% |
